Tests used:
[1] = Dynamic light scattering (DLS) of LNP preparations: size (diameter) and polydispersity; type: physicochemical; conditions: Table D; LNP formulation ratio 47.5:40:2.5:10, ABE mRNA + PCSK9 sgRNA 1:1
Protocol: A ratio of aqueous to organic solvent of approximately 2:1 or 3:1 was maintained during mixing using differential flow rates. After mixing, LNP preparations were collected, diluted in phosphate buffer saline (PBS) or Tris-buffered saline (TBS) (approximately 1:1 v/v). Further buffer exchange was conducted using dialysis in PBS or TBS at 4° C. for 4 to 24 hours against a 20 kDa filter. After this initial dialysis, each individual LNP preparation may be characterized via dynamic light scattering (DLS) to measure the size (e.g., diameter) and polydispersity. LNP preparations falling within specific diameter and polydispersity ranges were pooled, and further dialyzed against PBS or TBS at 4° C. for 1 to 4 hours against a 100 kDa dialysis cassette. After the second dialysis, LNP preparations were sterile filtered using 0.22 μm filter and stored at 4° C. for further use.
(§1) LNP preparations are formed by microfluidic mixing of the lipid and NA solutions using a Precision Nanosystems NanoAssemblr Ignite Instrument, according to the manufacturer's protocol. A 3:1 ratio of aqueous to organic solvent is maintained during mixing using differential flow rates. After mixing, LNP preparations are collected, diluted in PBS (approximately 2:1 v/v), and further buffer exchange is conducted using dialysis in PBS at 4° C. for 8 to 24 hours against a 20 kDa filter. After this initial dialysis, each individual LNP preparation is characterized via dynamic light scattering (DLS) to measure size and polydispersity. pKa of a subpopulation of LNP preparations is measured via TNS assay. After dialysis, LNP preparations are sterile filtered using 0.22 micron sterile filter and stored at 4° C. for further use. In some embodiments, LNP preparations may be concentrated using 100 kDa Amicon filters per manufacturer's protocol.
DLS-LNP preparation hydrodynamic diameter and polydispersity index (PDI) is measured using high throughput dynamic light scattering (DLS) (DynaPro plate reader II, Wyatt). LNP preparations are diluted 1×PBS to an appropriate concentration and analyzed.

PCSK9 target site = assay: In vivo base editing with LNP-delivered ABE mRNA and sgRNA targeting PCSK9; conditions: Balb/c mice, IV tail vein, 0.03 mg/kg total RNA, 4 days after dosing
Protocol: Lipid nanoparticle components are dissolved in 100% ethanol at specified lipid component molar ratios. mRNA encoding an adenine base editor and a chemically-modified sgRNA is dissolved at a mass ratio of 1:1 in 10 mM citrate, 100 mM NaCl, pH 4.0, resulting in a concentration of NA cargo of approximately 0.22 mg/mL. LNP preparations are formulated with molar ratios of either 50% Ionizable Lipid:38.5% Cholesterol:1.5% PEG2000-DMG: 10% DSPC or 47.5% Ionizable Lipid:40% Cholesterol:2.5% PEG2000-DMG: 10% DSPC both at a total lipid to NA molar ratio of 6.
as §1
Male Balb/C mice aged approximately 8-12 weeks are used in the experiments described herein. Each mouse is temporarily restrained, and LNP preparations are administered IV via tail vein injection. Age-matched mice are also used to administer vehicle (1×PBS) via tail vein injection as a control. […]
For base editing, mRNA encoding an adenine base editor (ABE) and a guide RNA (sgRNA) targeting PCSK9 at 1:1 (mass ratio) are coencapsulated in LNP preparations as described herein. […] Base editing is determined by performing targeted deep sequencing analysis at the PCSK9 target site using extracted genomic DNA.

[2] = Encapsulation efficiency of LNP preparations (unlysed and lysed LNPs); type: physicochemical; conditions: Table D; LNP formulation ratio 47.5:40:2.5:10, ABE mRNA + PCSK9 sgRNA 1:1
Protocol: Concentration of NA is determined by Qubit microRNA kit (for siRNA) or HS RNA kit (for mRNA) per manufacturer's instructions. Encapsulation efficiency is determined by measuring unlysed and lysed LNPs.

[3] = pKa of LNP preparations via TNS assay; type: physicochemical; conditions: Table D; LNP formulation ratio 47.5:40:2.5:10
Protocol: as §1

C=CC(C)(CCC=C(C)CCC=C(C)C)OC(=O)CCCCCC(=O)OCC(COC(=O)CCCCCC(=O)OC(C)(C=C)CCC=C(C)CCC=C(C)C)COC(=O)CCC(CCCCCC)OC(=O)NCCN1CCCC1 (stereo not drawn) [Example 13, 1-{2-[({7-oxo-7-[(3,7,11-trimethyldodeca-1,6,10-trien-3-yl)oxy]heptanoyl}oxy)methyl]-3-{[4-({[2-(pyrrolidin-1-yl)ethyl]carbamoyl}oxy)decanoyl]oxy}propyl}7-(3,7,11-trimethyldodeca-1,6,10-trien-3-yl) heptanedioate]
Diameter (nm) [1]: 73.3 nm | Liver Editing A->G (%) (PCSK9 target site): 1.2% | EE (%) [2]: 96.1% | pKa [3]: 6.72

CCCCCCC(CCC(=O)OCC(COC(=O)CCCCCC(=O)OCC=C(C)CCC=C(C)CCC=C(C)C)COC(=O)CCCCCC(=O)OCC=C(C)CCC=C(C)CCC=C(C)C)OC(=O)NCCN1CCCC1 (stereo not drawn) [Example 14, 1-{2-[({7-oxo-7-[(3,7,11-trimethyldodeca-2,6,10-trien-1-yl)oxy]heptanoyl}oxy)methyl]-3-{[4-({[2-(pyrrolidin-1-yl)ethyl]carbamoyl}oxy)decanoyl]oxy}propyl}7-(3,7,11-trimethyldodeca-2,6,10-trien-1-yl) heptanedioate]
Diameter (nm) [1]: 77.15 nm | Liver Editing A->G (%) (PCSK9 target site): 23.6% | EE (%) [2]: 97.7% | pKa [3]: 6.78

CCCCCCC(CCC(=O)OCC(COC(=O)CCCCCC(=O)OCC=C(C)CCCC(C)CCCC(C)CCCC(C)C)COC(=O)CCCCCC(=O)OCC=C(C)CCCC(C)CCCC(C)CCCC(C)C)OC(=O)NCCN1CCCC1 (stereo not drawn) [Example 15, 1-{2-[({7-oxo-7-[(3,7,11,15-tetramethylhexadec-2-en-1-yl)oxy]heptanoyl}oxy)methyl]-3-{[4-({[2-(pyrrolidin-1-yl)ethyl]carbamoyl}oxy)decanoyl]oxy}propyl}7-(3,7,11,15-tetramethylhexadec-2-en-1-yl) heptanedioate]
Diameter (nm) [1]: 74.1 nm | Liver Editing A->G (%) (PCSK9 target site): 15.7% | EE (%) [2]: 98.5% | pKa [3]: 6.32

— patent publication US20260176252A1, “IONIZABLE LIPIDS WITH BRANCHED HEAD GROUPS” (Beam Therapeutics Inc., priority 2023, published 2026)
